## NC(=O)c1ccccc1
In acetone, 283.15 K
  solubility (mole fraction): 0.0508
In acetone, 288.15 K
  solubility (mole fraction): 0.0589
In acetone, 293.15 K
  solubility (mole fraction): 0.0703
In acetone, 298.15 K
  solubility (mole fraction): 0.0817
In acetone, 303.15 K
  solubility (mole fraction): 0.0948
In acetone, 308.15 K
  solubility (mole fraction): 0.107
In acetone, 313.15 K
  solubility (mole fraction): 0.126
In acetone, 318.15 K
  solubility (mole fraction): 0.149
In acetone, 323.15 K
  solubility (mole fraction): 0.174
In acetonitrile, 283.15 K
  solubility (mole fraction): 0.0162
In acetonitrile, 288.15 K
  solubility (mole fraction): 0.0196
In acetonitrile, 293.15 K
  solubility (mole fraction): 0.0231
In acetonitrile, 298.15 K
  solubility (mole fraction): 0.0278
In acetonitrile, 303.15 K
  solubility (mole fraction): 0.0331
In acetonitrile, 308.15 K
  solubility (mole fraction): 0.0385
In acetonitrile, 313.15 K
  solubility (mole fraction): 0.046
In acetonitrile, 318.15 K
  solubility (mole fraction): 0.0564
In acetonitrile, 323.15 K
  solubility (mole fraction): 0.0712
In ethanol, 283.15 K
  solubility (mole fraction): 0.0412
In ethanol, 288.15 K
  solubility (mole fraction): 0.0479
In ethanol, 293.15 K
  solubility (mole fraction): 0.0555
In ethanol, 298.15 K
  solubility (mole fraction): 0.0648
In ethanol, 303.15 K
  solubility (mole fraction): 0.0758
In ethanol, 308.15 K
  solubility (mole fraction): 0.087
In ethanol, 313.15 K
  solubility (mole fraction): 0.101
In ethanol, 318.15 K
  solubility (mole fraction): 0.12
In ethanol, 323.15 K
  solubility (mole fraction): 0.143
In ethyl acetate, 283.15 K
  solubility (mole fraction): 0.0206
In ethyl acetate, 288.15 K
  solubility (mole fraction): 0.0234
In ethyl acetate, 293.15 K
  solubility (mole fraction): 0.0279
In ethyl acetate, 298.15 K
  solubility (mole fraction): 0.0334
In ethyl acetate, 303.15 K
  solubility (mole fraction): 0.0392
In ethyl acetate, 308.15 K
  solubility (mole fraction): 0.0455
In ethyl acetate, 313.15 K
  solubility (mole fraction): 0.0518
In ethyl acetate, 318.15 K
  solubility (mole fraction): 0.0613
In ethyl acetate, 323.15 K
  solubility (mole fraction): 0.0719
In isobutanol, 283.15 K
  solubility (mole fraction): 0.0268
In isobutanol, 288.15 K
  solubility (mole fraction): 0.0289
In isobutanol, 293.15 K
  solubility (mole fraction): 0.0342
In isobutanol, 298.15 K
  solubility (mole fraction): 0.0416
In isobutanol, 303.15 K
  solubility (mole fraction): 0.0489
In isobutanol, 308.15 K
  solubility (mole fraction): 0.0569
In isobutanol, 313.15 K
  solubility (mole fraction): 0.0665
In isobutanol, 318.15 K
  solubility (mole fraction): 0.0786
In isobutanol, 323.15 K
  solubility (mole fraction): 0.0945
In isopropanol, 283.15 K
  solubility (mole fraction): 0.0253
In isopropanol, 288.15 K
  solubility (mole fraction): 0.0314
In isopropanol, 293.15 K
  solubility (mole fraction): 0.0387
In isopropanol, 298.15 K
  solubility (mole fraction): 0.0473
In isopropanol, 303.15 K
  solubility (mole fraction): 0.0558
In isopropanol, 308.15 K
  solubility (mole fraction): 0.0642
In isopropanol, 313.15 K
  solubility (mole fraction): 0.0767
In isopropanol, 318.15 K
  solubility (mole fraction): 0.0893
In isopropanol, 323.15 K
  solubility (mole fraction): 0.111
In methanol, 283.15 K
  solubility (mole fraction): 0.0599
In methanol, 288.15 K
  solubility (mole fraction): 0.0699
In methanol, 293.15 K
  solubility (mole fraction): 0.0804
In methanol, 298.15 K
  solubility (mole fraction): 0.0917
In methanol, 303.15 K
  solubility (mole fraction): 0.105
In methanol, 308.15 K
  solubility (mole fraction): 0.121
In methanol, 313.15 K
  solubility (mole fraction): 0.141
In methanol, 318.15 K
  solubility (mole fraction): 0.164
In methanol, 323.15 K
  solubility (mole fraction): 0.189
In methyl acetate, 283.15 K
  solubility (mole fraction): 0.0236
In methyl acetate, 288.15 K
  solubility (mole fraction): 0.0277
In methyl acetate, 293.15 K
  solubility (mole fraction): 0.0334
In methyl acetate, 298.15 K
  solubility (mole fraction): 0.0401
In methyl acetate, 303.15 K
  solubility (mole fraction): 0.0476
In methyl acetate, 308.15 K
  solubility (mole fraction): 0.0567
In methyl acetate, 313.15 K
  solubility (mole fraction): 0.0662
In methyl acetate, 318.15 K
  solubility (mole fraction): 0.0769
In methyl acetate, 323.15 K
  solubility (mole fraction): 0.0927
In n-butanol, 283.15 K
  solubility (mole fraction): 0.0308
In n-butanol, 288.15 K
  solubility (mole fraction): 0.036
In n-butanol, 293.15 K
  solubility (mole fraction): 0.0425
In n-butanol, 298.15 K
  solubility (mole fraction): 0.0509
In n-butanol, 303.15 K
  solubility (mole fraction): 0.0591
In n-butanol, 308.15 K
  solubility (mole fraction): 0.0682
In n-butanol, 313.15 K
  solubility (mole fraction): 0.0787
In n-butanol, 318.15 K
  solubility (mole fraction): 0.0933
In n-butanol, 323.15 K
  solubility (mole fraction): 0.109
In n-butyl acetate, 283.15 K
  solubility (mole fraction): 0.0176
In n-butyl acetate, 288.15 K
  solubility (mole fraction): 0.0192
In n-butyl acetate, 293.15 K
  solubility (mole fraction): 0.0224
In n-butyl acetate, 298.15 K
  solubility (mole fraction): 0.0264
In n-butyl acetate, 303.15 K
  solubility (mole fraction): 0.0304
In n-butyl acetate, 308.15 K
  solubility (mole fraction): 0.0349
In n-butyl acetate, 313.15 K
  solubility (mole fraction): 0.0402
In n-butyl acetate, 318.15 K
  solubility (mole fraction): 0.0451
In n-butyl acetate, 323.15 K
  solubility (mole fraction): 0.0525
In n-propanol, 283.15 K
  solubility (mole fraction): 0.0329
In n-propanol, 288.15 K
  solubility (mole fraction): 0.0398
In n-propanol, 293.15 K
  solubility (mole fraction): 0.0479
In n-propanol, 298.15 K
  solubility (mole fraction): 0.0561
In n-propanol, 303.15 K
  solubility (mole fraction): 0.0653
In n-propanol, 308.15 K
  solubility (mole fraction): 0.0753
In n-propanol, 313.15 K
  solubility (mole fraction): 0.0891
In n-propanol, 318.15 K
  solubility (mole fraction): 0.103
In n-propanol, 323.15 K
  solubility (mole fraction): 0.126
In water, 283.15 K
  solubility (mole fraction): 0.00099
In water, 288.15 K
  solubility (mole fraction): 0.00128
In water, 293.15 K
  solubility (mole fraction): 0.0017
In water, 298.15 K
  solubility (mole fraction): 0.00212
In water, 303.15 K
  solubility (mole fraction): 0.00261
In water, 308.15 K
  solubility (mole fraction): 0.00306
In water, 313.15 K
  solubility (mole fraction): 0.00363
In water, 318.15 K
  solubility (mole fraction): 0.00438
In water, 323.15 K
  solubility (mole fraction): 0.00538
